Test results published in ChEMBL document CHEMBL1201862, “PubChem BioAssay data set” (2004).
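Values below derive from 48-hour exposures of cells grown in 96-well plates, with endpoints linearly interpolated between the two concentrations bracketing the appropriate inhibition level. GI50 marks 50% less growth.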 The source made the active and inactive calls. Rule as the data show it: active = GI50 up to about 1.1 µM and inactive = higher.

Tests used:
Assay in all cases: growth of human tumour cells (NCI), 48 h
NCI-H522 = tested on: NCI-H522
SNB-19 = tested on: SNB-19
SK-MEL-5 = tested on: SK-MEL-5
NCI-H460 = tested on: NCI-H460
DU-145 = tested on: DU-145
SF-295 = tested on: SF-295
UACC-62 = tested on: UACC-62
MDA-MB-435 = tested on: MDA-MB-435
HCC 2998 = tested on: HCC 2998
OVCAR-3 = tested on: OVCAR-3
SN12C = tested on: SN12C
NCI-H23 = tested on: NCI-H23
HCT-15 = tested on: HCT-15
NCI-H226 = tested on: NCI-H226
U-251 = tested on: U-251
A549 = tested on: A549
MCF7 = tested on: MCF7
A498 = tested on: A498
SF-539 = tested on: SF-539
M14 = tested on: M14

Row | Compound | GI50 (NCI-H522) | GI50 (SNB-19) | GI50 (SK-MEL-5) | GI50 (NCI-H460) | GI50 (DU-145) | GI50 (SF-295) | GI50 (UACC-62) | GI50 (MDA-MB-435) | GI50 (HCC 2998) | GI50 (OVCAR-3) | GI50 (SN12C) | GI50 (NCI-H23) | GI50 (HCT-15) [µM] | GI50 (NCI-H226) | GI50 (U-251) | GI50 (A549) | GI50 (MCF7) | GI50 (A498) | GI50 (SF-539) | GI50 (M14)
1 | CC[C@@]1(O)C(=O)OCc2c1cc1n(c2=O)Cc2c-1nc1ccccc1c2/C=N\NC(=O)C[n+]1ccccc1 | 0.991 µM (active) | 0.267 µM (active) | 0.366 µM (active) | 0.117 µM (active) | 0.0944 µM (active) | 0.247 µM (active) | 0.0541 µM (active) | 3.56 µM (inactive) | 8.13 µM (inactive) | 7.78 µM (inactive) | 0.119 µM (active) | 0.388 µM (active) | 2.9 | 0.991 µM (active) | 0.261 µM (active) | 0.513 µM (active) | 0.0735 µM (active) | 2.78 µM (inactive) | 0.0752 µM (active) | 0.457 µM (active)
2 | Cc1ccc2c(c1)Nc1cc(C(F)(F)F)ccc1[PH]2=O (stereo not given) | 21.7 µM (inactive) | 18.9 µM (inactive) | 15.3 µM (inactive) | 27.7 µM (inactive) | 45.6 µM (inactive) | 5.57 µM (inactive) | 10.5 µM (inactive) | 37.6 µM (inactive) | 44.6 µM (inactive) | 30 µM (inactive) | 32.8 µM (inactive) | 22.2 µM (inactive) | 43.6 | 21.3 µM (inactive) | 27.2 µM (inactive) | 30.4 µM (inactive) | 9.59 µM (inactive) | 9.53 µM (inactive) | 21.8 µM (inactive) | 65.2 µM (inactive)
3 | CC(=O)[C@H]1[C@H](O)C[C@@]2(C)[C@@H]3CCc4cc(O)c(OC5OC(CO)C(O)C(O)C5O)cc4C3(C)C(=O)C[C@]12C (stereo not given in full) | > 100 µM (inactive) | > 100 µM (inactive) | > 100 µM (inactive) | > 100 µM (inactive) | > 100 µM (inactive) | > 100 µM (inactive) | > 100 µM (inactive) | > 100 µM (inactive) | > 100 µM (inactive) | > 100 µM (inactive) | > 100 µM (inactive) | > 100 µM (inactive) | > 100 | > 100 µM (inactive) | > 100 µM (inactive) | > 100 µM (inactive) | > 100 µM (inactive) | > 100 µM (inactive) | > 100 µM (inactive) | > 100 µM (inactive)
